Measured values published in patent US10576097B2, “URLC10-derived peptide and vaccine containing same” (ONCOTHERAPY SCIENCE, INC., priority 2014, dated 2020).

Legend:
[1] = system: C1R-A03 cells pulsed with the respective peptide; experiment: IFN-gamma ELISA of CTL lines and CTL clones (HLA-A*0301); format: cell-based, human
Protocol: (§1) CTLs were propagated in culture using methods similar to those disclosed by Riddell et al. (Walter E A et al., N Engl J Med 1995, 333(16): 1038-44; Riddell S R et al., Nat Med 1996, 2(2): 216-23). The CTLs were co-cultured in a total of 25 ml AIM-V medium containing 5% AS (AIM-V/5% AS) and 40 ng/ml anti-CD3 antibody with two types of Mitomycin C-treated human B lymphoblastoid cell lines at 5×10^6 cells/flask. One day after beginning of the culturing, 120 IU/ml IL-2 was added to the culture. On days 5, 8 and 11, a fresh AIM-V/5% AS medium containing 30 IU/ml IL-2 was added to the culture (Tanaka H et al., Br J Cancer 2001, 84(1): 94-9; Umano Y et al., Br J Cancer 2001, 84(8): 1052-7; Uchida N et al., Clin Cancer Res 2004, 10(24): 8577-86; Suda T et al., Cancer Sci 2006, 97(5): 411-9; Watanabe T et al., Cancer Sci 2005, 96(8): 498-506).
Dilution of CTLs was carried out to make 1 and 10 cells/well in 96 round-bottomed microtiter plates (Nalge Nunc International). The CTLs were co-cultured with two types of Mitomycin C-treated human B lymphoblastoid cell lines at 1×10^4 cells/well in a total of 150 micro-l/well 5% AS-containing AIM-V (AIM-V/5% AS) medium with 30 ng/ml anti-CD3 antibody and 125 IU/ml IL-2. Ten days later, IL-2 was added to the medium at 50 micro-l/well to reach a final concentration of 125 IU/ml. On day 14, the CTL activity was tested, and the CTL clones were propagated using the same method as described above (Uchida N et al., Clin Cancer Res 2004, 10(24): 8577-86; Suda T et al., Cancer Sci 2006, 97(5): 411-9; Watanabe T et al., Cancer Sci 2005, 96(8): 498-506).
(§2) To examine specific CTL activity, an IFN-gamma ELISPOT assay and an IFN-gamma enzyme-linked immunosorbent assay (ELISA) were performed. Specifically, peptide-pulsed C1R-A03 (1×10^4 cells/well) was prepared as the stimulator cell. The induced CTLs, i.e., CTL lines and CTL clones, were used as the responder cell. The IFN-gamma ELISPOT assay and IFN-gamma ELISA were performed according to the manufacturer's manual.

[2] = system: COS7 cells transfected with both full-length URLC10 and the HLA-A*0301 gene; experiment: Specific CTL activity against target cells expressing URLC10 and HLA-A*0301; format: cell-based, African green monkey
Source text: (§3) A cDNA encoding the open-reading frame of a target gene or HLA-A*0301 was amplified by PCR. The PCR-amplified product was cloned into an expression vector. Either or both of the target gene-expressing vector and the HLA-A*0301-expressing vector were transfected into COST, which is a cell line negative for the target gene and HLA, using Lipofectamine 2000 (Invitrogen) following the manufacturer's recommended protocol. Two days after transfection, the transfected cells were harvested using versene (Invitrogen), and used as the target cell for CTL activity assay (5×10^4 cells/well).
(§4) The CTL clone established against URLC10-A03-11-131 (SEQ ID NO: 31) was investigated for its ability to recognize target cells expressing URLC10 and the HLA-A*0301 molecule. COS7 cells transfected with both full-length URLC10 and the HLA-A*0301 gene (a specific model of target cells expressing URLC10 and the HLA-A*0301 gene) were prepared as the target cell. COS7 cells transfected with either full-length URLC10 or HLA-A*0301 were prepared as the control.

[3] = system: peptide-pulsed C1R-A03; experiment: In vitro CTL induction, IFN-gamma ELISPOT assay (HLA-A*0301); format: cell-based, human; settings: CTLs induced from HLA-A*0301-positive donors, against peptide-pulsed C1R-A03, compared with control
Source text: (§5) Monocyte-derived dendritic cells (DCs) were used as the antigen-presenting cell to induce a cytotoxic T lymphocyte (CTL) response against peptides presented on human leukocyte antigens (HLAs). As described in the other sections, DCs were generated in vitro (Nakahara S et al., Cancer Res 2003, 63(14): 4112-8). Specifically, peripheral-blood mononuclear cells isolated from healthy volunteers (HLA-A*0301-positive) with the Ficoll-Paque plus solution (Pharmacia) were separated by attaching to plastic tissue culture dishes (Becton Dickinson) and concentrated as a monocyte fraction. The monocyte-concentrated population was cultured in the presence of 1000 IU/ml granulocyte macrophage colony-stimulating factor (R&D System) and 1000 IU/ml interleukin(IL)-4 (R&D System) in an AIM-V medium (Invitrogen) containing 2% heat-inactivated autologous serum (AS). After seven days of culturing, the cytokine-induced DCs were pulsed with 20 micro-g/ml each of the synthesized peptides in an AIM-V medium at 37 degrees C. for three hours in the presence of 3 micro-g/ml beta 2-microglobulin. The generated cells appeared to express on their cell surface DC-associated molecules such as CD80, CD83, CD86 and HLA class II (data not shown). Next, these peptide-pulsed DCs were inactivated by X-ray irradiation (20 Gy), and mixed in a 1:20 ratio with autologous CD8^+ T cells obtained by positive selection using the CD8 Positive Isolation Kit (Dynal). These culture products were seeded in a 48-well plate (Corning). Each well was made to contain 1.5×10^4 peptide-pulsed DCs, 3×10^5 CD8^+ T cells and 10 ng/ml IL-7 (R&D System) in 0.5 ml of the AIM-V/2% AS medium. Three days later, these culture products were added with a final concentration of 20 IU/ml IL-2 (CHIRON). On day 7 and day 14, T cells were further stimulated with peptide-pulsed autologous DCs. The DCs were prepared every time by the same method as above. On day 21, after the third peptide stimulation, CTLs were examined against the peptide-pulsed C1R-A03 by a human interferon (IFN)-gamma enzyme-linked immunospot (ELISPOT) assay (Tanaka H et al., Br J Cancer 2001, 84(1): 94-9; Umano Y et al., Br J Cancer 2001, 84(8): 1052-7; Uchida N et al., Clin Cancer Res 2004, 10(24): 8577-86; Suda T et al., Cancer Sci 2006, 97(5): 411-9; Watanabe T et al., Cancer Sci 2005, 96(8): 498-506).
as §2

[4] = system: peptide-pulsed C1R-A11; experiment: In vitro CTL induction, IFN-gamma ELISPOT assay (HLA-A*1101); format: cell-based, human; settings: CTLs induced from HLA-A*1101-positive donors, against peptide-pulsed C1R-A11, compared with control
Source text: as §5, with “(HLA-A*1101-positive)” for “(HLA-A*0301-positive)”, “C1R-A11” for “C1R-A03”
as §2, with “C1R-A11” for “C1R-A03”

[5] = system: peptide-pulsed C1R-A11 cells; experiment: IFN-gamma ELISA of CTL lines and CTL clones (HLA-A*1101); format: cell-based, human
Protocol: as §1
Dilution of CTLs was carried out to make 0.3, 1 and 3 cells/well in 96 round-bottomed microtiter plates (Nalge Nunc International). The CTLs were co-cultured with two types of Mitomycin C-treated human B lymphoblastoid cell lines at 1×10^4 cells/well in a total of 150 micro-l/well AIM-V/5% AS medium with 30 ng/ml anti-CD3 antibody and 125 IU/ml IL-2. Ten days later, IL-2 was added to the medium at 50 micro-1/well to reach a final concentration of 125 IU/ml. […]

[6] = system: COS7 cells transfected with both full-length URLC10 and the HLA-A*1101 gene; experiment: Specific CTL activity against target cells expressing URLC10 and HLA-A*1101; format: cell-based, African green monkey
Source text: as §3, with “HLA-A*1101” for “HLA-A*0301”, “HLA-A*1101-expressing” for “HLA-A*0301-expressing”, “COS7,” for “COST,”
as §4, with “URLC10-A11-10-132” for “URLC10-A03-11-131”, “13)” for “31)”, “HLA-A*1101” for “HLA-A*0301”

[7] = CTL line against peptide-pulsed versus non-pulsed target cells

Row | Sequence | IFN-gamma production of CTL clone ([1]; CTL clone by limiting dilution, against peptide-pulsed C1R-A03 cells) | IFN-gamma production of CTL line [1, 7] | CTL activity of peptide-stimulated CTL clone against control cells ([2]; COS7 cells transfected with either full-length URLC10 or HLA-A*0301) | CTL activity of peptide-stimulated CTL clone ([2]; against COS7 cells expressing both URLC10 and HLA-A*0301) | peptide-specific CTL activity (IFN-gamma production) [3] | peptide-specific CTL activity (IFN-gamma production) [4] | IFN-gamma production of CTL clone ([5]; CTL clone by limiting dilution, against peptide-pulsed C1R-A11 cells) | IFN-gamma production of CTL line [5, 7] | CTL activity of peptide-stimulated CTL clone against control cells ([6]; COS7 cells transfected with either full-length URLC10 or HLA-A*1101) | CTL activity of peptide-stimulated CTL clone ([6]; against COS7 cells expressing both URLC10 and HLA-A*1101)
1 | KIFPRFFMVAK (a peptide derived from URLC10) [SEQ ID NO 31, URLC10-derived 11mer peptide, start position 131] | Potent IFN-gamma production | potent IFN-gamma production | significant specific CTL activity was not detected | potent CTL activity | potent IFN-gamma production |  |  |  |  | 
2 | IFPRFFMVAK (a peptide derived from URLC10) [SEQ ID NO 13, URLC10-derived 10mer peptide, start position 132] |  |  |  |  |  | potent IFN-gamma production | Potent IFN-gamma production | potent IFN-gamma production | significant specific CTL activity was not detected | potent CTL activity
